Data: patent publication US10111890B2, “9-aminomethyl minocycline compounds and uses thereof” (Paratek Pharmaceuticals, Inc., priority 2016, dated 2018)

What was measured:
[1] = system: ABSSSI known or suspected to be due to Gram-positive pathogens; experiment: Phase 3 oral omadacycline vs oral linezolid in ABSSSI: Investigator's Assessment of Clinical Response at PTE; type: in vivo, human; details: omadacycline minus linezolid, Wound Infection, mITT
[2] = Phase 3 oral omadacycline vs oral linezolid in ABSSSI: safety (adverse events, TEAEs, vital signs, ECG, laboratory); type: in vivo; details: safety population
Description: An Adverse Event (AE) is any untoward, undesired, or unplanned event in the form of signs, symptoms, disease, or laboratory or physiologic observations occurring in a person given a test article or in a clinical study. […] An AE includes, but is not limited to, the following: any clinically significant worsening of a preexisting condition; an AE occurring from overdose of a test article, whether accidental or intentional; overdose is a dose greater than that specified in the protocol; an AE occurring from abuse (e.g., use for nonclinical reasons) of a test article; and an AE that has been associated with the discontinuation of the use of a test article.
The severity (or intensity) of an AE was classified using the following criteria:
Concerning relatedness, causality (i.e., whether there was a reasonable possibility that test article caused the event) for all AEs and SAEs was assessed.
Safety variables include the incidence rate of AEs, change in vital signs, ECG parameters and laboratory test results obtained during the course of the study. For safety analyses, subjects were analyzed according to the treatment actually received.
Summary tables were provided for all treatment-emergent adverse events (TEAEs). A TEAE is defined as an AE with a start date and time on or after the first dose of test article. […] Additional tabulations provide summaries by SOC and PT of subjects experiencing SAEs, severe TEAEs, TEAEs judged to be related to test article, TEAEs leading to discontinuation of test article, and TEAEs of special interest.
The following variables were analyzed descriptively: Vital signs (systolic and diastolic BP, pulse rate, body temperature, respiratory rate), including change from Screening by visit; Clinically notable vital signs (meeting predefined criteria as specified in the SAP) by visit. Subjects with notable vital signs data were listed.
ECG data (RR interval, PR interval, QRS interval, QTc, QTc Bazett's Correction Formula [QTcB], and QTc Fridericia's Correction Formula [QTcF]) was summarized descriptively at each scheduled evaluation, and for the overall worst post-Screening value. Changes from Screening at each visit that a 12-lead ECG was obtained was also provided. An outlier analysis was conducted based on the worst post-Screening value.
The following variables were analyzed descriptively: Laboratory variables by visit; Change from Screening of laboratory variables by visit; and Clinically notable laboratory values (meeting predefined criteria specified in the SAP) by visit.

[3] = system: ABSSSI; experiment: Earlier Phase 3 i.v.-to-oral omadacycline vs linezolid study in ABSSSI: clinical success; type: in vivo, human; details: i.v. with switch to oral

CN(C)c1cc(CNCC(C)(C)C)c(O)c2c1C[C@H]1C[C@H]3[C@H](N(C)C)C(O)=C(C(N)=O)C(=O)[C@@]3(O)C(O)=C1C2=O [Omadacycline, 9-[(2,2-dimethyl-propylamino)-methyl]-minocycline]
Difference (95% CI) in Overall Clinical Success rate at PTE ([1]; actual type): 5.7 (−2.0, 13.4) | Difference (95% CI) in Overall Clinical Success rate at PTE ([1]; as randomized): 6.1 (−1.6, 13.7) | Subjects who died [2]: 0 n (%) | Subjects with at Least One Adverse Events (AE) [2]: 201 (54.6) n (%) | Subjects with at Least One Drug-Related Serious TEAE [2]: 0 n (%) | Subjects with at Least One Drug-Related TEAE [2]: 139 (37.8) n (%) | Subjects with at Least One Serious TEAE [2]: 5 (1.4) n (%) | Subjects with at Least One Serious TEAE leading to Death [2]: 0 n (%) | Subjects with at Least One Serious TEAEs leading to premature discontinuation of test article [2]: 3 (0.8) n (%) | Subjects with at Least One Severe TEAE [2]: 6 (1.6) n (%) | Subjects with at Least One TEAE Leading to Study Drug Discontinuation [2]: 6 (1.6) n (%) | Subjects with at Least One TEAE leading to dose interruption [2]: 0 n (%) | Subjects with at Least One TEAE leading to premature discontinuation of study [2]: 3 (0.8) n (%) | Subjects with at Least One TEAE leading to premature discontinuation of test article [2]: 6 (1.6) n (%) | TEAE leading to study drug discontinuation: Cellulitis [2]: 1 (0.3) n (%) | TEAE leading to study drug discontinuation: Gastrointestinal Disorders (SOC) [2]: 1 (0.3) n (%) | TEAE leading to study drug discontinuation: Haematemesis [2]: 1 (0.3) n (%) | TEAE leading to study drug discontinuation: Infections And Infestations (SOC) [2]: 4 (1.1) n (%) | TEAE leading to study drug discontinuation: Nausea [2]: 1 (0.3) n (%) | TEAE leading to study drug discontinuation: Pregnancy [2]: 1 (0.3) n (%) | TEAE leading to study drug discontinuation: Pregnancy, Puerperium And Perinatal Conditions (SOC) [2]: 1 (0.3) n (%) | TEAE leading to study drug discontinuation: Staphylococcal Bacteraemia [2]: 1 (0.3) n (%) | TEAE leading to study drug discontinuation: Subcutaneous Abscess [2]: 1 (0.3) n (%) | TEAE leading to study drug discontinuation: Vomiting [2]: 1 (0.3) n (%) | TEAE leading to study drug discontinuation: Wound Infection [2]: 1 (0.3) n (%) | TEAE: Alanine Aminotransferase Increased [2]: 19 (5.2) n (%) | TEAE: Aspartate Aminotransferase Increased [2]: 17 (4.6) n (%) | TEAE: Cellulitis [2]: 12 (3.3) n (%) | TEAE: Headache [2]: 13 (3.5) n (%) | TEAE: Wound Infection [2]: 22 (6.0) n (%) | Total Number of AEs [2]: 468 | Total Number of TEAEs [2]: 448 | Subjects with at Least One TEAE ([2]; AE overview): 197 (53.5) n (%) | TEAE: Abdominal Pain Upper ([2]; all severities): 10 (2.7) n (%) | TEAE: Diarrhea ([2]; all severities): 15 (4.1) n (%) | TEAE: Nausea ([2]; all severities): 111 (30.2) n (%) | TEAE: Vomiting ([2]; all severities): 62 (16.8) n (%) | Subjects with at Least One TEAE, Mild ([2]; highest severity Mild): 120 (32.6) n (%) | TEAE: Abdominal Pain Upper, Mild ([2]; highest severity Mild): 9 (2.4) n (%) | TEAE: Abdominal Pain, Mild ([2]; highest severity Mild): 3 (0.8) n (%) | TEAE: Diarrhea, Mild ([2]; highest severity Mild): 13 (3.5) n (%) | TEAE: Gastrointestinal Disorders (SOC), Mild ([2]; highest severity Mild): 105 (28.5) n (%) | TEAE: Nausea, Mild ([2]; highest severity Mild): 83 (22.6) n (%) | TEAE: Vomiting, Mild ([2]; highest severity Mild): 44 (12.0) n (%) | Subjects with at Least One TEAE, Moderate ([2]; highest severity Moderate): 71 (19.3) n (%) | TEAE: Abdominal Pain Upper, Moderate ([2]; highest severity Moderate): 1 (0.3) n (%) | TEAE: Abdominal Pain, Moderate ([2]; highest severity Moderate): 3 (0.8) n (%) | TEAE: Diarrhea, Moderate ([2]; highest severity Moderate): 2 (0.5) n (%) | TEAE: Gastrointestinal Disorders (SOC), Moderate ([2]; highest severity Moderate): 39 (10.6) n (%) | TEAE: Nausea, Moderate ([2]; highest severity Moderate): 28 (7.6) n (%) | TEAE: Vomiting, Moderate ([2]; highest severity Moderate): 18 (4.9) n (%) | Subjects with at Least One TEAE, Severe ([2]; highest severity Severe): 6 (1.6) n (%) | TEAE: Abdominal Pain Upper, Severe ([2]; highest severity Severe): 0 n (%) | TEAE: Abdominal Pain, Severe ([2]; highest severity Severe): 0 n (%) | TEAE: Diarrhea, Severe ([2]; highest severity Severe): 0 n (%) | TEAE: Gastrointestinal Disorders (SOC), Severe ([2]; highest severity Severe): 0 n (%) | TEAE: Nausea, Severe ([2]; highest severity Severe): 0 n (%) | TEAE: Vomiting, Severe ([2]; highest severity Severe): 0 n (%) | Subjects with at Least One TEAE ([2]; most frequent (≥2%) TEAEs table): 197 (53.5) n (%) | clinical success based on investigator's assessment of clinical response ([3]; 7-14 days after the last dose): 86.1% | clinical success based on a reduction of lesion size ([3]; 48-72 hours after the first dose, FDA primary analysis population (N=627)): 84.8% | non-inferiority to linezolid ([3]; 7-14 days): non-inferior
